Data published in patent publication US9649266B2 (priority 2014, dated 2017).
Read-outs that look alike come from different tables or passages of the source.

Legend:
enlarged skin pores = settings: 0.1% gel on face twice a day, after a month
sebum production = settings: for reduction in sebum production (as assessed by the Sebotape): 2% memantine lotion twice daily on back skin, vs pre-treatment or control region; for health of the skin in treatment region: 2% memantine lotion twice daily
acne = settings: 0.5% cream on face twice a day, after three months
oily skin = settings: 1% solution on face twice a day, after a month

CNC1(C)C2CCC(C2)C1(C)C (stereo not shown) [mecamylamine]
appearance of skin pores (enlarged skin pores): smaller in diameter | visible unwanted side-effects regarding skin (enlarged skin pores): no other visible unwanted side-effects

CC12CC3CC(C)(C1)CC(N)(C3)C2 [memantine]
reduction in sebum production (as assessed by the Sebotape) (sebum production; after five days): > 50% | reduction in sebum production (as assessed by the Sebotape) (sebum production; after six days): > 50% | health of the skin in treatment region (sebum production; after five days): healthy skin | health of the skin in treatment region (sebum production; after six days): healthy skin | appearance of acne (acne): less visible | visible unwanted side-effects regarding skin (acne): no other visible unwanted side-effects

OC(CCN1CCCCC1)(c1ccccc1)C1CC2C=CC1C2 (stereo not shown) [biperiden]
appearance of skin oiliness (oily skin): much less oily | visible unwanted side-effects regarding skin (oily skin): no other visible unwanted side-effects
